Results reported in ChEMBL document CHEMBL1136711, “Synthesis and SAR of bicyclic heteroaryl hydroxamic acid MMP and TACE inhibitors” (Bioorg Med Chem Lett, 2003).

How the values were obtained:
[1] = molecular target: Disintegrin and metalloproteinase domain-containing protein 17 (Homo sapiens, UniProt P78536); experiment: Inhibitory activity against TACE.
[2] = molecular target: Collagenase 3 (Homo sapiens, UniProt P45452); experiment: Inhibitory activity against matrix metalloprotease 13 (MMP-13).
[3] = molecular target: Matrix metalloproteinase-9 (Homo sapiens, UniProt P14780); experiment: Inhibitory activity against matrix metalloprotease 9 (MMP-9).
Sequence of Matrix metalloproteinase-9 (P14780 whole entry): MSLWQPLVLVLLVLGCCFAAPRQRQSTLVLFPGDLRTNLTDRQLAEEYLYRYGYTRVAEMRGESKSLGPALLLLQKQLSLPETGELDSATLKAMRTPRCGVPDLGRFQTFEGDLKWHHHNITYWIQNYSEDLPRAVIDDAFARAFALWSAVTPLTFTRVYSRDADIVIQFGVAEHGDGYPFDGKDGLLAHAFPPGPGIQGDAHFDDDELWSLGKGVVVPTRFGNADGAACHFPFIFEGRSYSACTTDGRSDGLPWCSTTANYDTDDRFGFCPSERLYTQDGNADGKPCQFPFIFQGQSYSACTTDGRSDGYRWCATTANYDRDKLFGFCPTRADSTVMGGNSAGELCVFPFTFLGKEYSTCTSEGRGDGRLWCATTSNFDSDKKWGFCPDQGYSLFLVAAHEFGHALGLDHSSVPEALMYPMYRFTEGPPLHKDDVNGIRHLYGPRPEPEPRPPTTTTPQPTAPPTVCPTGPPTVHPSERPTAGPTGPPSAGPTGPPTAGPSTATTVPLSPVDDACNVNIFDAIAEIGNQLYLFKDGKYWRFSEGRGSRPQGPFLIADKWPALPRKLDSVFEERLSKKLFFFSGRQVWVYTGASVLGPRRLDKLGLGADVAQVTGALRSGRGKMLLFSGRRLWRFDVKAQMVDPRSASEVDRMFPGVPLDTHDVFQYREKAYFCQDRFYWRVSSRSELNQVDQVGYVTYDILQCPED

[4] = molecular target: T1, Interstitial collagenase (Homo sapiens, UniProt P03956); experiment: Inhibitory activity against matrix metalloprotease 1 (MMP-1).
T1 sequence (P03956 whole entry): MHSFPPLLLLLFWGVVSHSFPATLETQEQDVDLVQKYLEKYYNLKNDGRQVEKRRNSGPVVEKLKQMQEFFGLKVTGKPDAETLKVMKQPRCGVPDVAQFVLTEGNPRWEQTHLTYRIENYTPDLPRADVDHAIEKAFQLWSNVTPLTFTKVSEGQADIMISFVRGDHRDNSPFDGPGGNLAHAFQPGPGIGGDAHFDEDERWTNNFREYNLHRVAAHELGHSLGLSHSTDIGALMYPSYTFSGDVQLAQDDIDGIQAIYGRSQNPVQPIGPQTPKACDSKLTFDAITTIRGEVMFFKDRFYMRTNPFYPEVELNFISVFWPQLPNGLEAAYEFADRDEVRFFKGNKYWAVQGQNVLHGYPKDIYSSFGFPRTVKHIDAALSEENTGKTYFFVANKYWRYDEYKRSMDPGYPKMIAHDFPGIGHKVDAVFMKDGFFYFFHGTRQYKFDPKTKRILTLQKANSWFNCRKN

[5] = species: Bos taurus; experiment: Ex vivo inhibition of cartilage degradation at 100 nM concentration in the bovine articular cartilage explant assay; type: functional; conditions: Cartilage tissue
[6] = system: Rattus norvegicus; experiment: In vivo inhibition of cartilage degradation at 50 mpk po bid in the rat sponge-wrapped cartilage implant model; type: functional
[7] = system: Mus musculus; experiment: In vivo inhibition of MMP-13 at 25 mpk po 1 hr after dosing in the mouse dialysis tubing implant assay; type: functional
[8] = system: THP-1; experiment: In vitro inhibition of TNF-alpha release at a concentration of 3 uM by using THP cellular assay; type: functional, cell-based; conditions: Homo sapiens
[9] = system: Mus musculus; experiment: In vivo inhibition of MMP-13 at 50 mpk po 1 hr after dosing in the mouse dialysis tubing implant assay; type: functional

Sequence of Disintegrin and metalloproteinase domain-containing protein 17 (P78536 whole entry, the tested form may be a part): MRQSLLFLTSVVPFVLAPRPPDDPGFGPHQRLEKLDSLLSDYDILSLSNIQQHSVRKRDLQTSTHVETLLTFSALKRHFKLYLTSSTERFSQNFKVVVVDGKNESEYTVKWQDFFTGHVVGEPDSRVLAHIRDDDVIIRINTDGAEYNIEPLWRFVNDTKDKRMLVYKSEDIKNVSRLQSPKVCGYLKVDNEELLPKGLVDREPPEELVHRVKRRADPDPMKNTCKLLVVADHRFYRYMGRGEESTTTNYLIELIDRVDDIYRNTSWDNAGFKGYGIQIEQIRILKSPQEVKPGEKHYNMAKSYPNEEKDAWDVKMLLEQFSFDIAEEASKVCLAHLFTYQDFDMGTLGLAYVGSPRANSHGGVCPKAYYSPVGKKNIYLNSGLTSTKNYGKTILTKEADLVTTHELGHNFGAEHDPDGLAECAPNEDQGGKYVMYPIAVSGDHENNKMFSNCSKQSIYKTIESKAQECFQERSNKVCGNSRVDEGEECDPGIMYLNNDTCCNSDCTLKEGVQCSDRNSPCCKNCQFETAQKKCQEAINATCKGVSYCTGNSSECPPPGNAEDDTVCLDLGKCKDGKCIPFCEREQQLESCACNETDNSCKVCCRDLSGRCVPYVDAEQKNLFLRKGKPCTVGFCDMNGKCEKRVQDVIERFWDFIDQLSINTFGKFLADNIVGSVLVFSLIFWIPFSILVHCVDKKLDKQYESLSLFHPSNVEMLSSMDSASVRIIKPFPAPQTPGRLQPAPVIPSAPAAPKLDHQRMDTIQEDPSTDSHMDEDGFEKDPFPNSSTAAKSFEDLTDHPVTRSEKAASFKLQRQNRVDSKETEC

IC50 [1] [nM] | IC50 [2] [nM] | IC50 [3] [nM] | SMILES | IC50 [4] [nM] | other results
296 | – | – | COc1ccc(S(=O)(=O)N(C)c2c(C(=O)NO)cnc3c(Br)cccc23)cc1 | – | –
> 100 | – | 2 | Cc1nn(C)c2ncc(C(=O)NO)c(N(C)S(=O)(=O)c3ccc(Oc4ccncc4)cc3)c12 | – | inhibition at 0.1 µM [5]: 61%; inhibition in vivo at 50 mg/kg [6]: 46%; inhibition in vivo at 25 mg/kg [7]: 54%
435 | 20 | 6 | COc1ccc(S(=O)(=O)N(Cc2cccnc2)c2c(C(=O)NO)cnc3c2cnn3-c2ccccc2)cc1 | – | –
124 | 3 | 3 | COc1ccc(S(=O)(=O)N(Cc2cccnc2)c2c(C(=O)NO)cnc3c(I)cccc23)cc1 | – | –
> 1000 | 7 | 11 | COc1ccc(S(=O)(=O)N(Cc2ccccc2)c2c(C(=O)NO)cnc3cc(Br)ccc23)cc1 | – | –
> 1000 | 7 | 11 | COc1ccc(S(=O)(=O)N(Cc2ccccc2)c2c(C(=O)NO)cnc3ccc(C(F)(F)F)cc23)cc1 | – | –
> 1000 | 170 | 595 | Cc1nn(C)c2ncc(C(=O)NO)c(N(C)S(=O)(=O)c3ccc(F)cc3)c12 | 177 | –
– | – | 2 | COc1ccc(S(=O)(=O)N(Cc2cccnc2)c2c(C(=O)NO)cnc3snc(C)c23)cc1 | – | –
> 1000 | > 1000 | > 1000 | Cc1ccc(S(=O)(=O)N(Cc2cccnc2)c2c(C(=O)NO)cnc3cc(C(F)(F)F)ccc23)cc1 | > 1000 | –
6 | – | – | CC#CCOc1ccc(S(=O)(=O)N(C)c2c(C(=O)NO)cnc3onc(C)c23)cc1 | – | –

Continued, molecule first:

SMILES | IC50 [1] [nM] | IC50 [2] [nM] | IC50 [3] [nM] | IC50 [4] [nM] | other results
CCCCOc1ccc(S(=O)(=O)N(C)c2c(C(=O)NO)cnc3c2c(C)nn3C)cc1 | 86 | 3 | 7 | 1920 | –
COc1ccc(S(=O)(=O)N(Cc2cccnc2)c2c(C(=O)NO)cnc3cc(C(F)(F)F)ccc23)cc1 | 1000 | 1 | 4 | – | –
CC#CCOc1ccc(S(=O)(=O)N(C)c2c(C(=O)NO)cnc3c(Br)cccc23)cc1 | – | – | – | – | inhibition [8]: 32%
COc1ccc(S(=O)(=O)N(Cc2cccnc2)c2c(C(=O)NO)cnc3c(-c4cccs4)cccc23)cc1 | – | – | – | 136 | –
COc1ccc(S(=O)(=O)N(Cc2cccnc2)c2c(C(=O)NO)cnc3c2c(C)nn3-c2ccccc2)cc1 | – | – | – | 115 | –
CC#CCOc1ccc(S(=O)(=O)N(C)c2c(C(=O)NO)cnc3c2c(C)nn3C)cc1 | – | – | 100 | – | –
Cc1nn(C)c2ncc(C(=O)NO)c(N(C)S(=O)(=O)c3ccc(Oc4ccc(Cl)cc4)cc3)c12 | 356 | – | – | 116 | –
COc1ccc(S(=O)(=O)N(Cc2ccccc2)c2c(C(=O)NO)cnc3ccc(Br)cc23)cc1 | > 1000 | 6 | 8 | 108 | –
C=Cc1cccc2c(N(C)S(=O)(=O)c3ccc(OC)cc3)c(C(=O)NO)cnc12 | 205 | 5 | 5 | 200 | –
CC#CCOc1ccc(S(=O)(=O)N(C)c2c(C(=O)NO)cnc3c(OC)cccc23)cc1 | – | 9 | – | – | –
CN(c1c(C(=O)NO)cnc2ccccc12)S(=O)(=O)c1ccc(Oc2ccncc2)cc1 | 124 | 1 | – | 1010 | inhibition at 0.1 µM [5]: 42%; inhibition in vivo at 50 mg/kg [6]: 44%; inhibition in vivo at 50 mg/kg [9]: 90%
O=C(NO)c1cnc2cc(C(F)(F)F)ccc2c1N(Cc1cccnc1)S(=O)(=O)c1ccc(-c2ccccc2)cc1 | 124 | – | 1160 | – | –
